Laboratory results published in PubChem BioAssay AID687022 (Broad Institute, 2013).
Activity calls are given as the source filed them.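 How the source made its calls: active means Fitted curve of melting temperature shift crosses the 1.0 threshold at or below the sample's highest valid tested concentration; inconclusive means Flat fit with activity 30 to 70, or invalid fit; inactive means Opposite direction, flat within 30, or no crossing.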

Target: Fibroblast growth factor 22 (Homo sapiens) (UniProt Q9HCT0)
Assay: FGF22 ligand-induced thermal stabilization – biophysical, thermal shift, cherry-pick, FGF22 synaptogenesis inhibitor project, dose response (AID 687022)
Details: recombinant FGF22 thermal shift, SYPRO orange melting

Fibroblast growth factor 22 (Homo sapiens), sequence (Q9HCT0 whole entry, looked up): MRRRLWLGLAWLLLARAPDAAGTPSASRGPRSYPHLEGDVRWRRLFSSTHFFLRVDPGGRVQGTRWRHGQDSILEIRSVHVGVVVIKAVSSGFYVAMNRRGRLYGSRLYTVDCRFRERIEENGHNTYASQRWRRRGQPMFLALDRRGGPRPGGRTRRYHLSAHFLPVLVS

Question: Which AbsAC1 (concentration giving Tm-shift threshold 1.0) does the source give for `Cc1ccccc1-n1c(O)c(/C=N/NC(=O)c2ccccc2O)c(=O)[nH]c1=S` here?
Answer: 3.51 µM

Question: `COc1ccc(-c2cn(CC[C@@H]3CC[C@@H](NC(=O)Nc4ccc(F)cc4)[C@H](CO)O3)nn2)cc1` was tested. Which AbsAC1 (concentration giving Tm-shift threshold 1.0) did it give?
Answer: 12.8 µM

Question: With `Cc1ccsc1C(=O)NNC(=O)c1ccc(NS(=O)(=O)c2cccs2)cc1` as the compound, how does the AbsAC1 (concentration giving Tm-shift threshold 1.0) read?
Answer: 11.6 µM

Question: With `CCN(CC)S(=O)(=O)c1ccc(N/N=C(\C)c2ccc(OC)cc2O)nc1` as the compound, how does the AbsAC1 (concentration giving Tm-shift threshold 1.0) read?
Answer: 14 µM

Question: With `Cc1nc2ccccc2c2oc(C(=O)NCc3ccc4c(c3)OCO4)cc12` as the compound, how does the AbsAC1 (concentration giving Tm-shift threshold 1.0) read?
Answer: 2.57 µM

Question: How did the AbsAC1 (concentration giving Tm-shift threshold 1.0) turn out when `CS(=O)(=O)N1CC(=O)N2[C@H](CO)[C@@H](c3ccc(C#CCc4ccccc4)cc3)[C@H]2C1` was run?
Answer: 37.5 µM

Question: For `NC(=O)Nc1ccc(C(=O)OCC(=O)Nc2sccc2C(N)=O)cc1`, which AbsAC1 (concentration giving Tm-shift threshold 1.0) is on record?
Answer: 23.8 µM

Question: How did the AbsAC1 (concentration giving Tm-shift threshold 1.0) turn out when `C[C@@H]1CN([C@@H](C)CO)S(=O)(=O)c2ccc(-c3ccncc3)cc2O[C@@H]1CN(C)C(=O)Nc1ccc(F)cc1` was run?
Answer: 4.72 µM

Question: How did the AbsAC1 (concentration giving Tm-shift threshold 1.0) turn out when `NC(=O)c1ccsc1NC(=O)COC(=O)CCCOc1ccccc1` was run?
Answer: 5.37 µM

Question: For `O=C(N/N=C/c1ccncc1)c1cc2ccccc2o1`, which AbsAC1 (concentration giving Tm-shift threshold 1.0) is on record?
Answer: 6.07 µM

Question: Which AbsAC1 (concentration giving Tm-shift threshold 1.0) does the source give for `Cc1cc(C)cc(NC(=O)CN2C(=O)NC(Cc3c[nH]c4ccccc34)C2=O)c1` (configuration not stated) here?
Answer: 13 µM

Question: For `CCN(CC)c1ccc(/C=N/NC(=O)c2c[nH]c3ccccc23)cc1`, which AbsAC1 (concentration giving Tm-shift threshold 1.0) is on record?
Answer: 26.8 µM

Question: Which AbsAC1 (concentration giving Tm-shift threshold 1.0) does the source give for `Cc1cccc(NC(=O)Nc2ccc(S(N)(=O)=O)cc2)c1` here?
Answer: 4.36 µM

Question: `CN1C(=O)c2cc(NC(=O)c3cccc(F)c3)ccc2OC[C@@H]2O[C@H](CC(=O)N3CCc4ccccc4C3)CC[C@@H]21` was tested. Which AbsAC1 (concentration giving Tm-shift threshold 1.0) did it give?
Answer: 17.2 µM

Question: For `Cn1c(C(=O)NCCc2c[nH]c3ccccc23)cc2sccc21`, which AbsAC1 (concentration giving Tm-shift threshold 1.0) is on record?
Answer: 2.76 µM

Question: For `O=[N+]([O-])c1ccc(Nc2cccc(F)c2)nc1`, which AbsAC1 (concentration giving Tm-shift threshold 1.0) is on record?
Answer: 3.78 µM

Question: `O=C(Nc1cccc(C(F)(F)F)c1)c1cccc(NS(=O)(=O)c2ccc(O)c(C(=O)O)c2)c1` was tested. Which AbsAC1 (concentration giving Tm-shift threshold 1.0) did it give?
Answer: 2.6 µM

Question: For `CSc1ccc(/C=N/NC(=O)c2ccc3nc[nH]c3c2)cc1`, which AbsAC1 (concentration giving Tm-shift threshold 1.0) is on record?
Answer: 1.58 µM

Question: Which AbsAC1 (concentration giving Tm-shift threshold 1.0) does the source give for `O=C(N/N=C/c1c[nH]c2ccccc12)c1cccc(Cl)c1` here?
Answer: 2.15 µM

Question: Which AbsAC1 (concentration giving Tm-shift threshold 1.0) does the source give for `COc1cc(NC(=O)c2ccc3c(c2)OCCO3)ccc1NC(=O)c1cccs1` here?
Answer: 3.85 µM

Question: For `Cc1ccc(S(=O)(=O)N(C)C[C@@H]2Oc3cc(Br)ccc3S(=O)(=O)N([C@@H](C)CO)C[C@H]2C)cc1`, which AbsAC1 (concentration giving Tm-shift threshold 1.0) is on record?
Answer: 29.2 µM

Question: With `O=C(Nc1ccc(F)cc1)N[C@@H]1CC[C@H](CCn2cc(-c3ccccc3F)nn2)O[C@H]1CO` as the compound, how does the AbsAC1 (concentration giving Tm-shift threshold 1.0) read?
Answer: 10.3 µM

Question: With `CC(C)CC(=O)n1sc(NC(=O)c2ccccc2)nc1=O` as the compound, how does the AbsAC1 (concentration giving Tm-shift threshold 1.0) read?
Answer: 6.61 µM

Question: With `CCCOc1ccc(NC(=O)CC2C(=O)N(C)C(=S)N2Cc2ccc3c(c2)OCO3)cc1` (configuration not stated) as the compound, how does the AbsAC1 (concentration giving Tm-shift threshold 1.0) read?
Answer: 3.25 µM

Question: How did the AbsAC1 (concentration giving Tm-shift threshold 1.0) turn out when `O=C(NCc1ccc(Cl)cc1)c1n[nH]c([N+](=O)[O-])c1Cl` was run?
Answer: 5.18 µM

Question: How did the AbsAC1 (concentration giving Tm-shift threshold 1.0) turn out when `CC(C)c1ccc(-n2c(O)c(/C=N/NC(=O)c3ccccc3O)c(=O)[nH]c2=S)cc1` was run?
Answer: 3.91 µM

Question: Which AbsAC1 (concentration giving Tm-shift threshold 1.0) does the source give for `COc1ccc(NC(=O)COC(=O)Cc2c[nH]c3ccccc23)cc1Cl` here?
Answer: 2.76 µM

Question: `CC(=O)Nc1cccc(C(=O)N/N=C/c2c[nH]c3ccccc23)c1` was tested. Which AbsAC1 (concentration giving Tm-shift threshold 1.0) did it give?
Answer: 2.4 µM

Question: With `O=C(Cc1c[nH]c2ccccc12)N1CCN(S(=O)(=O)c2cccc(Cl)c2Cl)CC1` as the compound, how does the AbsAC1 (concentration giving Tm-shift threshold 1.0) read?
Answer: 13.4 µM

Question: For `O=C(C[C@H]1CC[C@H]2[C@@H](COC[C@@H](O)CN2S(=O)(=O)c2cccc(F)c2)O1)Nc1ccc(-c2ccccc2)cc1`, which AbsAC1 (concentration giving Tm-shift threshold 1.0) is on record?
Answer: > 38 µM (inactive)

Question: `O=C(O)c1ccc(Cl)c(S(=O)(=O)Nc2ccc(S(=O)(=O)N3CCCC3)cc2)c1` was tested. Which AbsAC1 (concentration giving Tm-shift threshold 1.0) did it give?
Answer: 14.1 µM

Question: `Oc1ccc(-c2csc(Nc3ccccn3)n2)c(O)c1` was tested. Which AbsAC1 (concentration giving Tm-shift threshold 1.0) did it give?
Answer: 5.13 µM

Question: For `Cc1cc(NC(=O)Nc2ccc3c(ccn3C)c2)sn1`, which AbsAC1 (concentration giving Tm-shift threshold 1.0) is on record?
Answer: 3.42 µM

Question: For `Brc1ccccc1/C=N/Nc1ccccn1`, which AbsAC1 (concentration giving Tm-shift threshold 1.0) is on record?
Answer: 9.78 µM

Question: `S=c1[nH]c2cc3ccccc3cc2[nH]1` was tested. Which AbsAC1 (concentration giving Tm-shift threshold 1.0) did it give?
Answer: 10.7 µM

Question: For `C=C1[C@@H](O)[C@H](Cc2ccccc2)N(Cc2ccccc2Br)S1(=O)=O`, which AbsAC1 (concentration giving Tm-shift threshold 1.0) is on record?
Answer: 15.5 µM

Question: For `Cc1ccc(NC(=O)CN2C(=O)NC(Cc3c[nH]c4ccccc34)C2=O)cc1` (configuration not stated), which AbsAC1 (concentration giving Tm-shift threshold 1.0) is on record?
Answer: 16.2 µM

Question: How did the AbsAC1 (concentration giving Tm-shift threshold 1.0) turn out when `S=C(Nc1ccc(N2CCOCC2)cc1)Nc1ccc2snnc2c1` was run?
Answer: 9.95 µM

Question: How did the AbsAC1 (concentration giving Tm-shift threshold 1.0) turn out when `O=C(NCC1CCOCC1)c1ccc2nc(Cc3cccc(Cl)c3)oc2c1` was run?
Answer: 6.43 µM

Question: `Cc1ccc2nc(-c3ccc(NC(=O)COCC(=O)O)cc3)sc2c1` was tested. Which AbsAC1 (concentration giving Tm-shift threshold 1.0) did it give?
Answer: 3.64 µM

Question: `Cc1nc2ccc(NC(=O)c3ccc(C)c(S(=O)(=O)N4CCOCC4)c3)cc2s1` was tested. Which AbsAC1 (concentration giving Tm-shift threshold 1.0) did it give?
Answer: 25.9 µM

Question: With `Nc1ccc(C(=O)N/N=C/c2c[nH]c3ccccc23)cc1` as the compound, how does the AbsAC1 (concentration giving Tm-shift threshold 1.0) read?
Answer: 3.41 µM

Question: For `O=C(Nc1nccs1)c1ccc(S(=O)(=O)NCc2cccs2)cc1`, which AbsAC1 (concentration giving Tm-shift threshold 1.0) is on record?
Answer: 11.1 µM

Question: With `CCOC(=O)c1c(N)sc(C(=O)Nc2ccccc2)c1C` as the compound, how does the AbsAC1 (concentration giving Tm-shift threshold 1.0) read?
Answer: 3.02 µM

Question: How did the AbsAC1 (concentration giving Tm-shift threshold 1.0) turn out when `COc1cc(/C=N/NC(=O)c2[nH]nc3c2CCc2ccccc2-3)ccc1O` was run?
Answer: 6.1 µM

Question: For `CCOC(=O)c1sc(N2C(=O)C(O)=C(C(=O)c3ccco3)C2c2ccc([N+](=O)[O-])cc2)nc1C` (configuration not stated), which AbsAC1 (concentration giving Tm-shift threshold 1.0) is on record?
Answer: 5.28 µM

Question: For `O=c1oc(-c2ccc(O)c(O)c2)cc2cc(O)cc(O)c12`, which AbsAC1 (concentration giving Tm-shift threshold 1.0) is on record?
Answer: 4.66 µM

Question: Which AbsAC1 (concentration giving Tm-shift threshold 1.0) does the source give for `COc1ccc(-c2ccc([C@H]3[C@@H](CO)N4CCCCN(C(=O)c5ccc6c(c5)OCO6)C[C@H]34)cc2)cc1` here?
Answer: 15.2 µM

Question: With `O=c1c2cc([N+](=O)[O-])cc([N+](=O)[O-])c2[nH]n1-c1ccccc1` as the compound, how does the AbsAC1 (concentration giving Tm-shift threshold 1.0) read?
Answer: 4.84 µM

Question: How did the AbsAC1 (concentration giving Tm-shift threshold 1.0) turn out when `N/C(=N\OCC(=O)Nc1ccc(F)c(Cl)c1)c1ccccc1` was run?
Answer: 4.58 µM

Question: How did the AbsAC1 (concentration giving Tm-shift threshold 1.0) turn out when `O=S(=O)(Nc1cc(Cl)ccc1-n1cncn1)c1ccc(F)cc1` was run?
Answer: 15.2 µM

Question: With `Cc1ccc(OCCCC(=O)Nc2ccc(S(=O)(=O)N3CCOCC3)cc2)cc1` as the compound, how does the AbsAC1 (concentration giving Tm-shift threshold 1.0) read?
Answer: 2.45 µM

Question: For `O=C(N/N=C\c1c[nH]c2ccccc12)c1ccc(O)cc1`, which AbsAC1 (concentration giving Tm-shift threshold 1.0) is on record?
Answer: 1.85 µM

Question: For `O=C(N/N=C/c1ccc(Cl)c(Cl)c1)c1ccc2nc[nH]c2c1`, which AbsAC1 (concentration giving Tm-shift threshold 1.0) is on record?
Answer: 2.35 µM

Question: Which AbsAC1 (concentration giving Tm-shift threshold 1.0) does the source give for `CC(C)Oc1ccc(F)cc1-c1cc(C(=O)NCc2cccs2)[nH]n1` here?
Answer: 8.55 µM

Question: With `CO[C@@H](CN(C)S(=O)(=O)c1cccc(Cl)c1)[C@@H](C)CN([C@@H](C)CO)S(=O)(=O)c1cccc(Cl)c1` as the compound, how does the AbsAC1 (concentration giving Tm-shift threshold 1.0) read?
Answer: 5.29 µM

Question: `C/C(=N\NC(=O)COc1ccc(C)cc1C(C)C)c1cc2ccccc2o1` was tested. Which AbsAC1 (concentration giving Tm-shift threshold 1.0) did it give?
Answer: 20.9 µM

Question: Which AbsAC1 (concentration giving Tm-shift threshold 1.0) does the source give for `COc1cc(OC)cc(C(=O)Nc2ccc(S(=O)(=O)Nc3nc(C)cc(C)n3)cc2)c1` here?
Answer: 15.5 µM

Question: `COc1cc2cc(NC(C)=O)cc(NCc3ccccc3)c2cc1OC` was tested. Which AbsAC1 (concentration giving Tm-shift threshold 1.0) did it give?
Answer: 8.13 µM

Question: `C[C@H](CO)N1C[C@H](C)[C@H](CN(C)C(=O)Nc2ccc3c(c2)OCO3)Oc2cc(C3=CCCC3)ccc2S1(=O)=O` was tested. Which AbsAC1 (concentration giving Tm-shift threshold 1.0) did it give?
Answer: 36.2 µM

Question: Which AbsAC1 (concentration giving Tm-shift threshold 1.0) does the source give for `Oc1cc(O)cc(-c2cc3ccc(O)cc3o2)c1` here?
Answer: 14.9 µM

Question: How did the AbsAC1 (concentration giving Tm-shift threshold 1.0) turn out when `O=C(Nc1ccc(F)cc1)N[C@@H]1CC[C@H](CCn2cc(-c3ccc(F)cc3)nn2)O[C@H]1CO` was run?
Answer: 13 µM
